Assay results published in the NIST ThermoML archive (doi:10.1016/j.jct.2007.07.001).

Key:
[1] = molar heat capacity at constant pressure; settings: 101 kPa, Liquid, Large sample (1 g) DSC
[2] = molar heat capacity at constant pressure; xn = mol fraction of the nth substance listed; settings: 101 kPa, Liquid, Large sample (1 g) DSC

CO [methanol]
[1]
Settings | molar heat capacity at constant pressure [J/K/mol]
283.15 K | 78.6
288.15 K | 79.5
293.15 K | 80.4
298.15 K | 81.3
303.15 K | 82.3
308.15 K | 83.4
313.15 K | 84.5
318.15 K | 85.7
323.15 K | 87

CCCCCCCC[n+]1ccn(C)c1.F[B-](F)(F)F [1-methyl-3-octylimidazolium tetrafluoroborate]
[1]
Settings | molar heat capacity at constant pressure [J/K/mol]
283.15 K | 490.1
288.15 K | 493.2
293.15 K | 496.3
298.15 K | 499.4
303.15 K | 502.5
308.15 K | 505.4
313.15 K | 508.4
318.15 K | 511.3
323.15 K | 514.2

CCCCCCCC[n+]1ccn(C)c1.F[B-](F)(F)F [1-methyl-3-octylimidazolium tetrafluoroborate] + CO
molar heat capacity at constant pressure [J/K/mol], [2]
Settings | 283.15 K | 288.15 K | 293.15 K | 298.15 K | 303.15 K | 308.15 K | 313.15 K | 318.15 K | 323.15 K
x1 = 0.0736 | 111.8 | 112.7 | 113.6 | 114.6 | 115.6 | 116.6 | 117.7 | 118.9 | 120.1
x1 = 0.1652 | 151.5 | 152.6 | 153.7 | 154.7 | 155.9 | 157 | 158.1 | 159.3 | 160.4
x1 = 0.3441 | 226.4 | 227.4 | 228.5 | 229.6 | 230.8 | 232.1 | 233.5 | 235 | 236.6
x1 = 0.4516 | 269.5 | 270.8 | 272.1 | 273.5 | 275 | 276.6 | 278.2 | 279.9 | 281.6
x1 = 0.6526 | 349.3 | 351.3 | 353.3 | 355.3 | 357.4 | 359.6 | 361.8 | 364 | 366.4
x1 = 0.8472 | 427.6 | 430.3 | 433 | 435.7 | 438.4 | 441.1 | 443.7 | 446.3 | 448.9
x1 = 1 | 490.1 | 493.2 | 496.3 | 499.4 | 502.5 | 505.4 | 508.4 | 511.3 | 514.2

CO [methanol] + CCCCCCCC[n+]1ccn(C)c1.F[B-](F)(F)F
[2], x2 = 0
Settings | molar heat capacity at constant pressure [J/K/mol]
283.15 K | 78.6
288.15 K | 79.5
293.15 K | 80.4
298.15 K | 81.3
303.15 K | 82.3
308.15 K | 83.4
313.15 K | 84.5
318.15 K | 85.7
323.15 K | 87

CO [methanol] + CCCCCCn1cc[n+](C)c1.F[B-](F)(F)F
[2], x2 = 0
Settings | molar heat capacity at constant pressure [J/K/mol]
283.15 K | 78.6
288.15 K | 79.5
293.15 K | 80.4
298.15 K | 81.3
303.15 K | 82.3
308.15 K | 83.4
313.15 K | 84.5
318.15 K | 85.7
323.15 K | 87

CCCCCCn1cc[n+](C)c1.F[B-](F)(F)F [1-hexyl-3-methylimidazolium tetrafluoroborate] + CO
molar heat capacity at constant pressure [J/K/mol], [2]
Settings | 283.15 K | 288.15 K | 293.15 K | 298.15 K | 303.15 K | 308.15 K | 313.15 K | 318.15 K | 323.15 K
x1 = 0.0751 | 108 | 108.7 | 109.5 | 110.3 | 111.2 | 112.2 | 113.2 | 114.2 | 115.3
x1 = 0.1511 | 135.5 | 136.4 | 137.4 | 138.3 | 139.3 | 140.3 | 141.3 | 142.4 | 143.4
x1 = 0.2973 | 187.2 | 188.1 | 188.9 | 189.9 | 190.8 | 191.8 | 192.9 | 193.9 | 195.1
x1 = 0.397 | 220.7 | 221.7 | 222.8 | 223.9 | 225.1 | 226.3 | 227.5 | 228.8 | 230.1
x1 = 0.6423 | 301.9 | 303.6 | 305.3 | 307 | 308.7 | 310.5 | 312.3 | 314.1 | 315.9
x1 = 0.8759 | 380.4 | 382.7 | 385 | 387.4 | 389.7 | 392.1 | 394.5 | 396.9 | 399.3
x1 = 1 | 423.2 | 425.8 | 428.4 | 431 | 433.6 | 436.2 | 438.8 | 441.4 | 444

CCCCCCn1cc[n+](C)c1.F[B-](F)(F)F [1-hexyl-3-methylimidazolium tetrafluoroborate]
[1]
Settings | molar heat capacity at constant pressure [J/K/mol]
283.15 K | 423.2
288.15 K | 425.8
293.15 K | 428.4
298.15 K | 431
303.15 K | 433.6
308.15 K | 436.2
313.15 K | 438.8
318.15 K | 441.4
323.15 K | 444
